Measured values reported in patent publication US6537566B1, “Compositions and methods for the non-invasive treatment of uterine fibroid cells” (priority 1999, dated 2003).
Where two headings read alike, the source gives them in different places.

Experiments:
Type in all cases: cell-based, human
[1] = test system: uterine fibroid leiomyoma cells; experiment: DNA content assay of growing leiomyoma cells treated with FGI agents (Example 1, 4 days); settings: for IC50: read-out: IC50 (= 80 ng) Concentration; for NG0 (= 32 ng) Concentration (no net growth): concentration giving the time=0 DNA content of 32 ng/well
Source text: A DNA assay was used for determining the effect of potential FGI agents on the growth of uterine fibroid leiomyoma cells. The assay determined the effect of various concentrations of an individual FGI agent on the accumulation of DNA in an actively growing population of uterine fibroid leiomyoma cells. The accumulation of DNA in treated cell populations relative to untreated controls was an indication the efficacy of the FGI agent for inhibiting fibroid cell proliferation.
(§1) Method: Fibroid tissue was obtained from patients undergoing hysterectomy for symptomatic leiomyomata, and leiomyoma cells were isolated from the tissue using standard techniques. Leiomyoma cells in 5% fetal calf serum were plated at 22,000 cells/well in 12-well plate. Cells were allowed to acclimate and grow for 24 hours before the start of the experiment. At time=0, the DNA content of the wells was determined (32+/−0.6 ng/well), and the cells were treated with different concentrations of the FGI agents as shown in FIG. 3A in 5% fetal calf serum. Controls received fetal calf serum alone. After treatment at time=4 days, the DNA content of each well was determined using standard methods. All points were determined in triplicate and are the mean +/− standard error.
The significance of the IC50 point was that it represented an estimated point relative to which a substrate may in part be gauged as an effective FGI agent. The NG0 (no net growth) was the point on the graph corresponding to the time=0 or starting DNA content of the wells.

[2] = test system: uterine fibroid leiomyoma cells; experiment: DNA content experiment similar to Example 1, GF109203x versus α-tocopherol succinate, 6 days (FIGS. 5A & 5B); settings: comparison of FIG. 5A with 5B; DNA content at time=6 days
Procedure: as §1
Clearly from Examples 1 & 2, tocopherol related substrates are potential FGI agents. This was expected because of tocopherol's effect on the PKC pathway. However, non-tocopherol related substrates that can appropriate appropriately effect the PKC pathway were also identified as potential FGI agents. Therefore, GF109203x, a protein kinase C inhibitor, was tested in an experiment similar to that of Example 1 to determine the efficacy of a non-tocopherol related, identified potential FGI agent to inhibit fibroid leiomyoma cell proliferation. Here, the DNA content of treated wells was determined at time=6 days. […]

[3] = test system: uterine fibroid leiomyoma cells; experiment: Growth of leiomyoma cells with low added concentrations over background tocopherols (Example 2); settings: added concentrations ranging from 1 to 5 μM over background tocopherols (about 10 μM); 4 days
Procedure: as §1
Method: See Example 1 above generally. Vitamin C, an antioxidant that is not an identified potential FGI agent, was used as an experimental substrate control.
Results: The results are illustrated in FIGS. 4A and 4B. The DNA concentration of controls at time=4 days was 99+/−0.2 ng/well (the “0” concentration in FIGS. 4A & 4B). Growth of uterine fibroid cells clearly occurred in the presence of a background concentration of tocopherols. […] However, upon the addition of 10 μM over back ground tocopherol treated wells began to show detectable inhibition of the growth of uterine fibroid cell populations.

[4] = test system: uterine fibroid leiomyoma cells; experiment: Separate DNA content experiment under conditions similar to Example 1, read at 6 days (FIG. 3B); settings: DNA content determined at time=6 days
Procedure: as §1
FIG. 3B is a graph of the results for α-tocopherol succinate from a separate experiment under conditions similar to Example 1. Here, the DNA content of treated wells was determined at time=6 days. The area under the horizontal line indicates the concentration at which net cell death occurred in this experiment (˜38 μM).

[5] = time=4 days, 5% fetal calf serum, N/A = condition not attained
[6] = Homo sapiens, 96 h, increase in DNA content 50% of that of control wells, time=4 days, 5% fetal calf serum, N/A = condition not attained
[7] = increase in DNA content 50% of that of control wells, time=4 days, 5% fetal calf serum, N/A = condition not attained

| Compound | NG0 (= 32 ng) Concentration (no net growth) [1, 5] | growth of uterine fibroid cell populations at low added concentrations [3] | other results |
| --- | --- | --- | --- |
| CN(CCOc1ccc(CC2SC(=O)NC2=O)cc1)c1ccccn1 (centres unmarked) [Rosiglitazone] | 90 µM |  | IC50 ([1]; Homo sapiens, 96 h): 40 µM |
| CN(C)CCCn1cc(C2=C(c3c[nH]c4ccccc34)C(=O)NC2=O)c2ccccc21 [GF109203x] |  |  | efficiency at inhibiting fibroid leiomyoma cell proliferation relative to α-tocopherol succinate [2]: ~5 time |
| Cc1c(C)c2c(c(C)c1O)CCC(C)(COc1ccc(CC3SC(=O)NC3=O)cc1)O2 (centres unmarked) [Troglitazone] | 50 µM |  | IC50 [1, 6]: 12 µM |
| Cc1cc(O)c(C)c2c1O[C@](C)(CCC[C@H](C)CCC[C@H](C)CCCC(C)C)CC2 [β-Tocopherol] |  | substantially uninhibited |  |
| CCc1ccc(CCOc2ccc(CC3SC(=O)NC3=O)cc2)nc1 (centres unmarked) [Pioglitazone] | 88 µM |  | IC50 [1, 6]: 40 µM |
| Cc1c(C)c2c(c(C)c1O)CC[C@@](C)(CCC[C@H](C)CCC[C@H](C)CCCC(C)C)O2 [α-Tocopherol] |  | substantially uninhibited | IC50 [1, 7]: 27 µM |
| Cc1c(C)c2c(c(C)c1OC(=O)CCC(=O)O)CC[C@@](C)(CCC[C@H](C)CCC[C@H](C)CCCC(C)C)O2 [α-Tocopherol succinate] | 38 µM | substantially uninhibited | IC50 [1, 7]: 22 µM; concentration at which net cell death occurred [4]: ~38 µM |
